Consider 21 molecules from patent US20160193216A1 (Nimbus Iris, Inc., priority 2012, published 2016).

This assay deals with T1, IRAK4 (Homo sapiens, UniProt Q9NWZ3).
T1 sequence (Q9NWZ3 1-460): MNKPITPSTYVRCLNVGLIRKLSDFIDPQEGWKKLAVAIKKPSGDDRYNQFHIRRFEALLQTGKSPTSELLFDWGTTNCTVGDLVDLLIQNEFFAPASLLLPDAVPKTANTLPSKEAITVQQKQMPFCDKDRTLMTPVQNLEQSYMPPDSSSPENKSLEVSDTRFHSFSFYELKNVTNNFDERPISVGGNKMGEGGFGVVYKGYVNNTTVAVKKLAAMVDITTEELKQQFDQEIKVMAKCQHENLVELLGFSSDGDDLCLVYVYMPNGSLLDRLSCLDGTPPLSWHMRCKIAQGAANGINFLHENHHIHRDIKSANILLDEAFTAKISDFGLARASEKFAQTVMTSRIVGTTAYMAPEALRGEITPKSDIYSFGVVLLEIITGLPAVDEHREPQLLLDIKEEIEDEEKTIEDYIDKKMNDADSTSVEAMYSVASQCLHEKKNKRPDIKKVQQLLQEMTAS
The assay is described as follows: IRAK-4 activity inhibition assay (Caliper). The assay is classed as biochemical. The note with it: 37 μM ATP, 3.5 nM IRAK4.

Bounds are passed on as bounds.

Consider `NC(=O)C(=O)C[C@H]1CCc2sc3ncnc(OC4CCC(N5CCOCC5)CC4)c3c21` (stereo partly drawn) [Compound I-213, 3-[(3R)-12-[[4-(morpholin-4-yl)cyclohexyl]oxy]-7-thia-9, 11-diazatricyclo[6.4.0.0[2,6]]dodeca-1(8),2(6),9, 11-tetraen-3-yl]-2-oxopropanamide], for which the IC50 (as a rule, the concentration that inhibits the measured activity by half) was less than 5 µM.
Under `CN(CC(=O)N1CCCC1)[C@H]1CC[C@H](Nc2ncnc3sc4c(c23)[C@@H](CCC(N)=O)CC4)CC1` [Compound I-127, 3-((S)-4-(((1r,4S)-4-(methyl(2-oxo-2-(pyrrolidin-1-yl)ethyl)amino)cyclohexyl)amino)-6,7-dihydro-5H-cyclopenta[4,5]thieno[2,3-d]pyrimidin-5-yl)propanamide] stands 5 to 20 µM.
The molecule `CN(C)[C@H]1CC[C@H](Nc2ncnc3sc4c(c23)C(CC(=O)N2CC[C@@H](O)C2)CC4)CC1` (stereo partly drawn) [Compound I-16, 2-(4-(((1r,4R)-4-(dimethylamino)cyclohexyl)amino)-6,7-dihydro-5H-cyclopenta[4,5]thieno[2,3-d]pyrimidin-5-yl)-1-((R)-3-hydroxypyrrolidin-1-yl)ethanone] returned an IC50 of more than 50 µM.
Under `NC(=O)C[C@H]1CCc2sc3ncnc(OC4CCC(NC5COC5)CC4)c3c21` (stereo partly drawn) [Compound I-132, 2-[(3R)-12-([4-[(oxetan-3-yl)amino]cyclohexyl]oxy)-7-thia-9,11-diazatricyclo[6.4.0.0[2,6]]dodeca-1(8),2(6),9,11-tetraen-3-yl]acetamide] stands less than 5 µM.
Turning to `CN(C)[C@H]1CC[C@H](Oc2nc(Nc3ccc(N4CCNCC4)cc3)nc3sc4c(c23)C(CC(N)=O)CC4)CC1` (mixture of isomers) [Compound I-205, 2-(12-[[4-(dimethylamino)cyclohexyl]oxy]-10-[[4-(piperazin-1-yl)phenyl]amino]-7-thia-9, 11-diazatricyclo[6.4.0.0[2,6]]dodeca-1(12),2(6),8, 10-tetraen-3-yl)acetamide], the IC50 was less than 5 µM.
In turn, `NC(=O)CC[C@H]1CCc2sc3ncnc(O[C@H]4CC[C@H](N5CCOCC5)CC4)c3c21` [Compound I-84, 3-((S)-4-(((1r,4S)-4-morpholinocyclohexyl)oxy)-6,7-dihydro-5H-cyclopenta[4,5]thieno[2,3-d]pyrimidin-5-yl)propanamide] gave an IC50 of less than 5 µM.
The molecule `C#CCOC[C@H]1CCc2sc3ncnc(O[C@H]4CC[C@H](N(C)C)CC4)c3c21` [Compound I-49, N,N-dimethyl-4-[[(3S)-3-[(prop-2-yn-1-yloxy)methyl]-7-thia-9,11-diazatricyclo[6.4.0.0[2,6]]dodeca-1(8),2(6),9,11-tetraen-12-yl]oxy]cyclohexan-1-amine] showed a half-inhibitory concentration (IC50) of less than 5 µM.
`CCNC(=O)C[C@@H]1CCc2sc3ncnc(O[C@H]4CC[C@H](N(C)C)CC4)c3c21` [Compound I-36, 2-[(3S)-12-[[4-(dimethylamino)cyclohexyl]oxy]-7-thia-9,11-diazatricyclo[6.4.0.0[2,6]]dodeca-1(12),2(6),8,10-tetraen-3-yl]-N-ethylacetamide] gave a concentration for half-maximal inhibition (IC50) of more than 50 µM.
As to `CC(=O)N1CCc2sc3ncnc(O[C@H]4CC[C@H](N)CC4)c3c2C1` [Compound I-197, 1-[3-[(4-aminocyclohexyl)oxy]-8-thia-4,6, 12-triazatricyclo[7.4.0.0[2,7]]trideca-1(9),2,4,6-tetraen-12-yl]ethan-1-one], the 50% inhibitory concentration (IC50) was in the range of 5 to 20 µM.
`CC1(C)Cc2c(sc3ncnc(O[C@H]4CC[C@H](N5CCOCC5)CC4)c23)CO1` [Compound I-193, 12,12-dimethyl-3-[[4-(morpholin-4-yl)cyclohexyl]oxy]-11-oxa-8-thia-4,6-diazatricyclo[7.4.0.0[2,7]]trideca-1(9),2(7),3,5-tetraene]: the IC50 was less than 5 µM.
The molecule `CN(C)[C@H]1CC[C@H](Nc2ncnc3sc4c(c23)C(CN2CCCC2)CC4)CC1` (stereo partly drawn) [Compound I-10, (1r,4r)-N1,N1-dimethyl-N4-(5-(pyrrolidin-1-ylmethyl)-6,7-dihydro-5H-cyclopenta[4,5]thieno[2,3-d]pyrimidin-4-yl)cyclohexane-1,4-diamine] yielded an IC50 of 20 to 50 µM.
For `NC(=O)C[C@H]1CCc2sc3ncnc(O[C@H]4CC[C@H](N5CCNCC5)CC4)c3c21` [Compound I-131, 2-[(3R)-12-[[4-(piperazin-1-yl)cyclohexyl]oxy]-7-thia-9,11-diazatricyclo[6.4.0.0[2,6]]dodeca-1(12),2(6),8,10-tetraen-3-yl]acetamide] the value was less than 5 µM; for `CC#CCOC[C@H]1CCc2sc3ncnc(O[C@H]4CC[C@H](N(C)C)CC4)c3c21` [Compound I-56, 4-[[(3S)-3-[(but-2-yn-1-yloxy)methyl]-7-thia-9,11-diazatricyclo[6.4.0.0[2,6]]dodeca-1(8),2(6),9,11-tetraen-12-yl]oxy]-N,N-dimethylcyclohexan-1-amine], less than 5 µM; for `CN(CC(=O)N1CCCC1)[C@H]1CC[C@H](Nc2ncnc3sc4c(c23)[C@@H](CCO)CC4)CC1` [Compound I-116, 2-(((1R,4r)-4-(((R)-5-(2-hydroxyethyl)-6,7-dihydro-5H-cyclopenta[4,5]thieno[2,3-d]pyrimidin-4-yl)amino)cyclohexyl)(methyl)amino)-1-(pyrrolidin-1-yl)ethanone], less than 5 µM.
Molecule `C[C@]1(N)CC[C@H](Oc2ncnc3sc4c(c23)[C@@H](CC(N)=O)CC4)CC1` [Compound I-161, 2-[(3R)-12-[(4-amino-4-methylcyclohexyl)oxy]-7-thia-9,11-diazatricyclo[6.4.0.0[2,6]]dodeca-1(8),2(6),9,11-tetraen-3-yl]acetamide] registered a concentration for half-maximal inhibition (IC50) of 5 to 20 µM.
Under `CN(C)[C@H]1CC[C@H](Nc2ncnc3sc4c(c23)C(CC(N)=O)CC4)CC1` (stereo partly drawn) [Compound I-13, 2-(4-(((1r,4r)-4-(dimethylamino)cyclohexyl)amino)-6,7-dihydro-5H-cyclopenta[4,5]thieno[2,3-d]pyrimidin-5-yl)acetamide] stands less than 5 µM; under `CN(C)[C@H]1CC[C@H](Oc2ncnc3sc4c(c23)[C@@H](C[C@H](O)C2CCCO2)CC4)CC1` (stereo partly drawn) [Compound I-89, (1S)-2-((R)-4-(((1r,4R)-4-(dimethylamino)cyclohexyl)oxy)-6,7-dihydro-5H-cyclopenta[4,5]thieno[2,3-d]pyrimidin-5-yl)-1-(tetrahydrofuran-2-yl)ethanol], less than 5 µM.
Under `OCC[C@H]1CCc2sc3ncnc(O[C@H]4CC[C@H](N5CCOCC5)CC4)c3c21` [Compound I-66, 2-[(3R)-12-[[4-(morpholin-4-yl)cyclohexyl]oxy]-7-thia-9,11-diazatricyclo[6.4.0.0[2,6]]dodeca-1(12),2(6),8,10-tetraen-3-yl]ethan-1-ol] stands less than 5 µM; under `CN(C)[C@H]1CC[C@H](Oc2ncnc3sc4c(c23)CC(CC(N)=O)CC4)CC1` (single isomer, unassigned) [Compound I-112], less than 5 µM.
For the molecule `CN(C)[C@H]1CC[C@H](Nc2ncnc3sc4c(c23)[C@@H](CC(N)=O)CC4)CC1` [Compound I-99, 2-[(3R)-12-[[4-(dimethylamino)cyclohexyl]amino]-7-thia-9,11-diazatricyclo[6.4.0.0[2,6]]dodeca-1(12),2(6),8,10-tetraen-3-yl]acetamide], the IC50 was less than 5 µM.
As to `CN(C)[C@]1(C)CC[C@@H](Oc2ncnc3sc4c(c23)[C@@H](CC(N)=O)CC4)CC1` [Compound I-155, 2-[(3R)-12-[[4-(dimethylamino)-4-methylcyclohexyl]oxy]-7-thia-9,11-diazatricyclo[6.4.0.0[2,6]]dodeca-1(8),2(6),9,11-tetraen-3-yl]acetamide], the IC50 is less than 5 µM.
